Laboratory results from patent publication US10280179B2, “Spiroquinoxaline derivatives as inhibitors of non-apoptotic regulated cell-death” (Helmholtz Zentrum Munchen—Deutches Forschungszentrum Fur …, priority 2013, dated 2019).
Like-named read-outs stand apart in the source and are kept apart here.

Legend:
[1] = test system: mouse hippocampal cell line (Ht22); test: Inhibition of glutamate-induced non-apoptotic cell death (Example B.2); type: cell-based; settings: HT-22, Ht22 cells
Summary of the method: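 Ht22 cells (2,000/well, DMEM/10% FBS) seeded together with 5 mM glutamate and compound (0.5 pM to 100 μM, triplicate), incubated 72 h at 37 °C/5% CO2. Cell survival then quantified; glutamate alone as negative control, alpha-tocopherol as positive control.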

SH-SY5Y cells = test: TNF-alpha-induced apoptosis, specificity for non-apoptotic cell death (Example B.3); type: cell-based, human; settings: compound 1 μM, TNF-alpha 10 ng/mL, FIG. 1
Protocol: SH-SY5Y cells were propagated and seeded in 96-well plates, together with compound N-1, N-2, N-10 of Table 1-N (FIG. 1(a)), compound O/S-6 or O/S-3 of Table 1-O/S (FIG. 1(b)), or compound C-12, C-91, or C-205 of Table 1-C (FIG. 1(c)) (each 1 μM) and TNF-alpha was added (final concentration: 10 ng/mL) to induce apoptosis. The apoptosis and pan-caspase inhibitor z-vad (final concentration: 50 μM) and the necroptosis inhibitor Necrostatin-1 (Nec-1; final concentration: 5 μM) were used for comparison. Control wells were established with vehicle only (DMSO), with and without treatment with TNF-alpha to induce apoptosis. Cells were incubated, and cell survival was detected and quantified. Percentage cell survival after TNF-alpha-induced apoptosis is shown (error bars indicate standard deviation (SD)).
Briefly, SH-SY5Y cells were propagated and seeded in 96-well plates, together with the compound to be tested (1 μM), generally as described in Example B.1, except they were seeded at 1,000 cell/well and instead of BSO, TNF-alpha (Invitrogen) was added to a final concentration of 10 ng/mL to induce apoptosis. The apoptosis and pan-caspase inhibitor Z-VAD-fmk (Enzo Life Science; final concentration 50 μM) and the necroptosis inhibitor Necrostatin-1 (Nec-1; Enzo Life Science; final concentration 5 μM) were used for comparison. Control wells were established with vehicle only (DMSO), with and without treatment with TNF-alpha to induce apoptosis. Cells were incubated, and cell survival was detected and quantified as described in Example B.1.

Pfa1 cells = test: Inhibition of non-apoptotic cell death after tamoxifen-induced GPx4 knockout in a recombinant cell line (Example B.4); type: cell-based; settings: Mus musculus, read-out: Pfa1/TAM IC50
Summary of the method: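 Immortalised murine fibroblasts with tamoxifen-inducible CreERT2 for ablation of both GPx4 copies (Pfa1 cells) received tamoxifen on day 0 together with test compound. Cell survival was measured by AlamarBlue after 72 hours.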

[2] = test system: human neuroblastoma cell line SH-SY5Y; test: Inhibition of BSO-induced non-apoptotic cell death (Example B.1); type: cell-based; settings: SH-SY5Y cells, 72 hours
Summary of the method: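 SH-SY5Y cells exposed to 50 μM BSO together with compound (0.5 pM–100 μM, triplicate) for 72 h at 37°C, 5% CO2. Survival measured by AquaBluer fluorescence (ex 530–560/em 590 nm), normalised to percent surviving cells, and IC50 derived.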

[3] = Cellular toxicity, same assay as Example B.4 without TAM (Example B.5); type: cell-based; settings: mouse; Pfa1 cells without TAM; read-out: TC50 (the source's name)
Excerpt: Cellular Toxicity of Compounds of the Invention
An estimate of the toxicity for compounds of the invention was obtained by using the same assay as described in Example B.4, but without the addition of TAM. […] Such TC50 values obtained for certain compounds disclosed herein, together with an approximate therapeutic window (estimated by dividing each TC50 by the corresponding IC50 determined from example B.4) are shown in Table 3.

[4] = glutamate 5 mM, 72 hours, cell survival, read-out: Ht22/GLU (Example B.2) IC50
[5] = glutamate-induced cell death, read-out: Ht22/GLU
[6] = 50 μM BSO, read-out: SH-SY5Y/BSO IC50
[7] = BSO 50 μM, cell survival (AquaBluer), read-out: SH-SY5Y/BSO (Example B.1) IC50

SMILES	IC50 [1, 4]	IC50 [1, 5]	Percentage cell survival after TNF-alpha-induced apoptosis (SH-SY5Y cells)	IC50 (Pfa1 cells)	IC50 [2, 6]	IC50 [2, 7]	CC50 [3]
Clc1ccccc1CNC1=Nc2ccccc2NC12CCNCC2 [N-1]	10.3 nM	< 200 nM	Non-inhibition of apoptotic cell-death	< 50 nM	< 20 nM	6.51 nM	10000 to 20000 nM
Clc1ccc(CNC2=Nc3ccccc3NC23CCOCC3)cc1 [O/S-3]	~100 nM	< 100 nM	Non-inhibition of apoptotic cell-death	< 500 nM	< 500 nM	~100 nM	20000 to 50000 nM
CC1CCC2(CC1)Nc1ccccc1N=C2NCc1ccccc1Cl (stereo not shown) [C-91]	~50 nM	< 200 nM	Non-inhibition of apoptotic cell-death	< 200 nM	< 20 nM	9.33 nM	10000 to 20000 nM
Clc1ccccc1CNC1=Nc2ccccc2NC12CCCCCC2 [C-205]	~100 nM	< 500 nM	Non-inhibition of apoptotic cell-death	< 200 nM	< 100 nM	46.7 nM	20000 to 50000 nM
